The source of these data is PMC8709997, “Long-term memory T cells as preventive anticancer immunity elicited by TuA-derived heteroclitic peptides” (Journal of Translational Medicine, 2021).

Residue numbers refer to the chain shown, from its start. Several values for one entry are separate records, joined by “and”; a condition that tells them apart may be missing. Identical values can stand only once.

For one assay, the target named is H-2 Db molecule (Mus musculus, UniProt P01899). Briefly: Peptide binding to H-2 Db on TAP-deficient RMA-S cells (flow cytometry). The note with it: RMA-S cells loaded with sub-optimal 1 μM peptide, mean fluorescence intensity. It is filed as cell-based, murine. The protocol: In order to experimentally confirm the binding and stability of heteroclitic peptides to H-2 Db molecule, the H-2 Db positive RMA-S cell line was loaded with a sub-optimal concentration of 1 μM of peptides.
H-2 Db molecule, sequence (P01899 whole entry, looked up): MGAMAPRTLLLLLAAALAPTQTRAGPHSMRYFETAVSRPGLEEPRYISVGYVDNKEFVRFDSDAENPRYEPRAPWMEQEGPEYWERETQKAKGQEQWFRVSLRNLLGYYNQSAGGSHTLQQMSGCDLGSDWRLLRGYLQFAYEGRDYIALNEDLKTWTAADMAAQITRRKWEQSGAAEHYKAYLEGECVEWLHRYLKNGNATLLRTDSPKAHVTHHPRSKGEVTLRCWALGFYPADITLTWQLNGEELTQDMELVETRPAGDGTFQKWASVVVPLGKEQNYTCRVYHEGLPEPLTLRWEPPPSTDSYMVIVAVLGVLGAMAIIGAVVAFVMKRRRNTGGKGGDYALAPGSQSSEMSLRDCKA
Supplementary file 12967_2021_3194_MOESM1_ESM.pptx: Additional file 1: Fig. S1. Predicted affinity of wt and hPep peptides. The affinity to H2-Db were predicted by NetMHCpan 4.1 for wt and heteroclitic peptides. The affinity (Aff) values are expressed in nanomolarity (nM). The selected hPep peptides are indicated for both E7 and Trp2 peptides. Fig. S2. Experimental affinity of wt and hPep peptides. Binding to H2-Db molecule was assessed in TAP-deficient RMA-S cells loaded with the indicated peptides. Mean fluorescence intensity at flow cytometer indicates binding levels of peptides to HLA molecules. Fig. S3. Comparison of short-term and long-term immunization. The curve of tumor growth in the short-term and long-term immunization experiments for the B16 (A) and TC1 (B) is indicated for each individual animal. The Kaplan-Meyer curves for the B16 (C) and TC1 (D) is indicated.
Background: A flow cytometer gives signals particle by particle.

The test system of assay [1] is TC-1 tumor cells expressing HPV16 E7 protein. Briefly: Preventive immunization and TC1 tumor challenge. It is filed as in vivo, C57BL/6 mice. The protocol: (§1) C57BL/6 (H-2-Db) female mice, 8 weeks old, were purchased from Harlan (Udine, Italy). All animals were housed at the Animal Facility of the Istituto Nazionale Tumori “Pascale” (Naples, Italy). Mice were housed in number of 2–3 per cage and maintained in a conventional facility on a 12 h light:12 h dark cycle (lights on at 7:00 a.m.) in a temperature-controlled room (22 ± 2 °C) and with food and water ad libitum at all times. The experimental protocols were in compliance with the European Communities Council directive (86/609/EEC).
(§2) Mouse melanoma B16F10 (ATCC, CRL-6323) cells were cultured in DMEM medium supplemented with 10% heat inactivated FBS, 100 U/ml penicillin and […] streptomycin (Invitrogen, Carlsbad, CA) at 37 °C with 5% CO2. Cells were tested for mycoplasma before inoculation in mice (ATCC®, 30-1012 K™). Mouse lung TC-1 tumor cells expressing HPV16 E7 protein (ATCC, CRL-2493), were cultured in RPMI medium supplemented with 10% heat inactivated FBS, 100 U/ml penicillin and […] streptomycin (Invitrogen, Carlsbad, CA), HEPES 10 mM, MEM 0.1 mM and Na Piruvate 1 mM at 37 °C with 5% CO2.
(§3) B16F10 and TC1 cells were harvested in exponential growth phase by trypsinization and washed twice with ice-cold PBS. C57BL/6 mice were subcutaneously injected with 5 × 10^4 and 1 × 10^5 cells/mouse of B16F10 or TC1 respectively on the right back flank. A cell aliquot (200μL) containing 1 × 10^6 cells was loaded in 21G syringes for intra-splenic injection. The tumor size was measured and documented every two days with a caliper, starting on day 7, and calculated using the formula (AxB^2)/2 (A as the largest and B is the smallest diameter of tumor). Tumor growth was documented as mean tumor size with standard error. To record the survival of the tumor-bearing mice, either natural death or a tumor diameter greater than 1500 mm^3 leading to death was counted as death.
(§4) Cyclophosphamide (CTX) (Endoxan®, Baxter) (10 mg/Kg) and Paclitaxel (PTX) (Taxol®, BMS) (5 mg/Kg) diluted with phosphate-buffered saline (PBS) were administered via intraperitoneal injection (i.p.). The dose was extrapolated to human equivalent dose (HED). Metronomic Chemotherapy was weekly administered one day before the vaccine administration until the end of the experiment. An anti-mouse PD-1 MAb (BioXCell, West Lebanon, NH USA) was used as checkpoint inhibitor (CI) and administered via intraperitoneal injection (i.p.) at a dose of 100 μg.
Preventive experimental setting was performed as follow: C57BL/6 mice were immunized once a week for 4 weeks by subcutaneous administration (s.c.) with WT 100ug or a mix of equimolar ratio of heteroclitic peptides (100 ug tot) formulated in 50ug PolyI:C. At the end of the immunization protocol, a group of animals were implanted with of B16F10 or TC1 cell lines (short-term memory group). In parallel, a second group was left for 2 months without any further treatment before implantation of the same number of cells (long-term memory group). Immunizations were performed in combination with metronomic chemotherapy (MCT) and CI [24–26]. One group was treated only with MCT and CI (MCT + CI group). Control mice were treated with endotoxin-free phosphate-buffered saline (PBS). At the time of sacrifice, whole blood was collected by puncture of the sinus retro-orbital vein prior analgesia with oxybuprocaine chlorhydrate (Fig. 1).
Animals were immunized in a preventative setting with either the wt or the heteroclitic E7 and Trp2 peptides. At the end of the full vaccination protocol, animals were challenged with 5 × 10^5 TC1 or 1 × 10^4 B16 tumor cells, respectively.
In order to assess the anti-tumor efficacy of the long-term memory induced by the vaccination, animals were left free of active immunization for 2 months. Animals were then challenged with 5 × 10^5 TC1 or 1 × 10^4 B16 tumor cells, respectively. […] Similarly, in the TC1 model, the long-term immunity was unable to control tumor growth as for the short-term immune response. […]

For assay [2], the system named is IFN-γ secreting T cells. The assay is described as follows: IFN-γ ELISpot on PBMCs, TC1 experimental group. It counts as cell-based, C57BL/6 mice. The conditions noted are these: PBMC pools re-stimulated with 10 ug/ml single peptides. The protocol:
(§5) ELISPOT was performed according to BD Biosciences manufacturer instructions (BD ELISPOT Mouse IFN-γ ELISPOT Set cod. 551,083). 5 × 10^5 splenocytes or 2 × 10^5 PBMCs from pooled samples were counted, plated in each well and stimulated with 10ug/ml of single peptides used for the immunization and incubated for 24-26 h. As negative and positive control, peptide diluents PBS and 5ug/ml of phorbol myristate acetate (PMA, Sigma-Aldrich) were used respectively. Plates were read with an AID EliSpot Reader Systems (AID GmbH, Strassberg, Germany). The results were calculated as spot forming counts as a mean of a duplicate count from the specific antigen stimulation minus the negative control.
(§6) Fig. 5 Immunological evaluation in the short-term immunization. Blood samples were drawn during the experiment from retro-orbital veins and PBMCs were isolated. Interferon-γ (IFN-γ) secreting T cells were evaluated in vitro after O/N re-stimulation with individual peptides. Pool of samples were used for each experimental groups. A and B B16 group; C and D TC1 group. SFU IFN-γ spot forming units
Fig. 7 Immunological evaluation in the long-term immunization. Blood samples were drawn during the experiment from retro-orbital veins and PBMCs were isolated. Interferon-γ (IFN-γ) secreting T cells were evaluated in vitro after O/N re-stimulation with individual peptides. […]

Assay [3] deals with IFN-γ secreting T cells. Briefly: IFN-γ ELISpot on PBMCs, B16 experimental group. It counts as cell-based, C57BL/6 mice. The conditions noted are these: for vaccine-specific IFN-γ immune response: PBMC pools re-stimulated with 10 ug/ml single peptides; for cross-reactivity with the wt: PBMC pools, IFN-γ ELISpot. The protocol: as §5, §6
Fig. 7 Immunological evaluation in the long-term immunization. Blood samples were drawn during the experiment from retro-orbital veins and PBMCs were isolated. Interferon-γ (IFN-γ) secreting T cells were evaluated in vitro after O/N re-stimulation with individual peptides. Pool of samples were used for each experimental groups. A–C B16 group; D–F TC1 group. WT NEG animals in the WT group with no sign of tumor growth, HET NEG animals in the Heteroclitic group with no sign of tumor growth

Another assay concerns B16F10 cells. Briefly: Preventive immunization and B16 tumor challenge. It counts as in vivo, C57BL/6 mice. Here is the method:
as §1, §2, §3, §4
Preventive experimental setting was performed as follow: C57BL/6 mice were immunized once a week for 4 weeks by subcutaneous administration (s.c.) with WT 100ug or a mix of equimolar ratio of heteroclitic peptides (100 ug tot) formulated in 50ug PolyI:C. […]

Setting [4] is: long-term: TC1 challenge 2 months after vaccination.

Turning to “RAHANIVTF [A4-E7, heteroclitic E7 peptide, Y4 to A substitution]”, at H-2 Db molecule, the “binding to the H2-Db molecule relative to wt” value is listed as “equivalent or higher than the wt”.
The same measure, in the same setting: then “RAHYHIVTF [H5-E7, heteroclitic E7 peptide, N5 to H substitution]”, with “complete loss of binding”.
In the case of RAHYNIVTF [WT-E7], in assay [1] (setting [4]), the “animals still alive (n/N)” value is 3/7 and the tumor-free animals stood at 1. Moreover, the “effect on tumor growth” value in assay [1] (long-term: TC1 challenge 2 months after vaccination, compared to controls) was “significantly delayed”. Also, the “animals showing late tumor growth” value in assay [1] (short-term TC1, growth at day 42 and day 51 post-challenge, follow up to day 60, data not shown) is given as “two animals”. The survival in assay [1] (short-term: TC1 challenge at end of vaccination) is 100%. For the same sequence, in assay [1] (short-term: TC1 challenge at end of vaccination, up to day 34), the “effect on tumor growth” value is reported as “completely inhibit the tumor growth”.
As for “RAIYNIVTF [I3-E7, heteroclitic E7 peptide, H3 to I substitution]”, on H-2 Db molecule, the “binding to the H2-Db molecule relative to wt” value was “equivalent or higher than the wt”. Besides, the “vaccine-specific IFN-γ immune response” value in the assay on IFN-γ secreting T cells [2] (long-term setting) and in the assay with IFN-γ secreting T cells [2] (short-term setting) was “immunodominant” throughout.
As to “SVCDFFVWL [C3-Trp2, heteroclitic Trp2 peptide, Y3 to C substitution]”, the “binding to the H2-Db molecule relative to wt” value on H-2 Db molecule is listed as “equivalent binding”.
Regarding “SVYAFFVWL [A4-Trp2, heteroclitic Trp2 peptide, D4 to A substitution]”, the “binding to the H2-Db molecule relative to wt” value at H-2 Db molecule is recorded as “equivalent binding”. For the same sequence, in the assay on IFN-γ secreting T cells [3] (long-term setting), the “vaccine-specific IFN-γ immune response” value is recorded as “immunodominant” and the “cross-reactivity with the wt” value is listed as “low cross-reactivity”. Moreover, in the assay on IFN-γ secreting T cells [3] (short-term setting), the “vaccine-specific IFN-γ immune response” value was “immunodominant” and the “cross-reactivity with the wt” value is on record as “low cross-reactivity”.
SVYDFFVWL [WT-Trp2]: the survival of animals entry with B16F10 cells (long-term: B16 challenge 2 months after vaccination, day 27 post-challenge) is given as “all animals in the wt group reached the threshold for euthanasia”. Also, in the assay on B16F10 cells (short-term: B16 challenge at end of vaccination), the “effect on tumor growth” value is “significantly delay tumor growth”. Moreover, the “animals still alive (n/N)” value with B16F10 cells (short-term: B16 challenge at end of vaccination, 34 days post-challenge, 100 ug peptide s.c. weekly x4 in 50 ug PolyI:C, with MCT and CI) was 2/6. In addition, the “animals still alive / survival” value with B16F10 cells (short-term: B16 challenge at end of vaccination, 34 days post-challenge, with PolyI:C, MCT and CI) was 33.3% and 33%. Moreover, the “vaccine-specific IFN-γ immune response” value in the assay with IFN-γ secreting T cells [3] (long-term setting) is “strong and comparable”; with IFN-γ secreting T cells [3] (short-term setting), “strong and comparable”.
In the case of “SVYDNFVWL [N5-Trp2, heteroclitic Trp2 peptide, F5 to N substitution]”, on H-2 Db molecule, the “binding to the H2-Db molecule relative to wt” value is recorded as “much better than the wt”.
